From patent publication US9663473B2 (Actelion Pharmaceuticals Ltd, priority 2013, dated 2017)
Structures can show the parent of a compound that is named as a salt.

molecular target: T1, recombinant human ALX receptor (Homo sapiens, UniProt P25090); test: Intracellular calcium measurements (FLIPR), ALX receptor agonistic activity; assay type: cell-based; settings: HEK293-hALXR-Gα16 cells, Fluo-4 calcium signal, normalized to WKYMVm 10 nM
T1 construct: expressed in transfected cells; host or cells: HEK293 (HEK293-hALXR-Gα16)
T1 sequence (P25090 1-351): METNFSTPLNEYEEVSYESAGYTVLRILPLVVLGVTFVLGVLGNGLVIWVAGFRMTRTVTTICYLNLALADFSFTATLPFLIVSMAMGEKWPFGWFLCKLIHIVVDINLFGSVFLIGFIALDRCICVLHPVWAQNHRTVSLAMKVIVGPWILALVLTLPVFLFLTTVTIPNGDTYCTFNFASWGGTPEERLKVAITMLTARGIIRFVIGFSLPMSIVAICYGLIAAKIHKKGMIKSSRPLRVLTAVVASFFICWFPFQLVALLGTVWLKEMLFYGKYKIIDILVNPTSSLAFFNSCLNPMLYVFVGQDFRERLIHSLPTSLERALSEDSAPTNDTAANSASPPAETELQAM
Method in brief: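 Agonist-induced calcium flux was read by FLIPR (488/540 nm) as baseline-subtracted peak emission, expressed relative to WKYMVm at 10 nM final. Cells used: HEK293-hALXR-Gα16, dye-loaded 60 min at 37° C. with 1 μM Fluo-4 AM before compound dose-response addition.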

Question: With COc1ccc(CC(NC(=O)NCc2nc3ccccc3s2)c2nc3ccccc3[nH]2)cc1 (centres unmarked) [Example 38, 1-(1-(1H-Benzo[d]imidazol-2-yl)-2-(4-methoxyphenyl)ethyl)-3-(benzo[d]thiazol-2-ylmethyl)urea] as the compound, how does the EC50 read?
Answer: 198 nM

Question: For COc1ccc(CC(NC(=O)Nc2ccnn2-c2ccc(F)cc2)c2nc3ccccc3[nH]2)cc1 (centres unmarked) [Example 410, 1-(1-(1H-benzo[d]imidazol-2-yl)-2-(4-methoxyphenyl)ethyl)-3-(1-(4-fluorophenyl)-1H-pyrazol-5-yl)urea], which EC50 is on record?
Answer: 45 nM

Question: COc1ccc(C[C@@H](NC(=O)NCc2ccccc2Cl)c2nc3ccccc3[nH]2)cc1 [Example 207, (R)-1-(1-(1H-Benzo[d]imidazol-2-yl)-2-(4-methoxyphenyl)ethyl)-3-(2-chlorobenzyl)urea] was tested. Which EC50 did it give?
Answer: 835 nM

Question: For COc1ccc(C[C@@H](NC(=O)N[C@H]2CCc3ccccc32)c2nc3ccccc3[nH]2)cc1 [Example 20, 1-((R)-1-(1H-Benzo[d]imidazol-2-yl)-2-(4-methoxyphenyl)ethyl)-3-((S)-2,3-dihydro-1H-inden-1-yl)urea], which EC50 is on record?
Answer: 712 nM

Question: Which EC50 does the source give for COc1ccc(CC(NC(=O)N[C@H]2CC[C@H](O)CC2)c2nc3ccccc3[nH]2)cc1F (single isomer, unassigned; ent-1) [Example 309, 1-(1-(1H-Benzo[d]imidazol-2-yl)-2-(3-fluoro-4-methoxyphenyl)ethyl)-3-(trans-4-hydroxycyclohexyl)urea (ent-1)] here?
Answer: 3.7 nM

Question: Which EC50 does the source give for COc1cc(F)c(CC(NC(=O)NC23CCC(O)(CC2)CC3)c2nc3ccccc3[nH]2)cc1F (centres unmarked) [Example 249, 1-(1-(1H-Benzo[d]imidazol-2-yl)-2-(2,5-difluoro-4-methoxyphenyl)ethyl)-3-(4-hydroxybicyclo[2.2.2]octan-1-yl)urea] here?
Answer: 4.2 nM

Question: Which EC50 does the source give for COc1ccc(C[C@@H](NC(=O)N[C@@H](C)c2cccc(Cl)c2)c2nc3ccccc3[nH]2)cc1 [Example 325, 1-((R)-1-(1H-Benzo[d]imidazol-2-yl)-2-(4-methoxyphenyl)ethyl)-3-((S)-1-(3-chlorophenyl)ethyl)urea] here?
Answer: 186 nM

Question: With COc1ccc(C[C@@H](NC(=O)NC(CCO)c2ccccc2)c2nc3ccccc3[nH]2)cc1 (stereo partly drawn) [Example 343, 1-((R)-1-(1H-Benzo[d]imidazol-2-yl)-2-(4-methoxyphenyl)ethyl)-3-(3-hydroxy-1-phenylpropyl)urea] as the compound, how does the EC50 read?
Answer: 40 nM

Question: With COc1ccc(CC(NC(=O)NC2CCC(CCO)CC2)c2nc3ccccc3[nH]2)cc1 (centres unmarked) [Example 107, 1-(1-(1H-Benzo[d]imidazol-2-yl)-2-(4-methoxyphenyl)ethyl)-3-(4-(2-hydroxyethyl)cyclohexyl)urea] as the compound, how does the EC50 read?
Answer: 6 nM

Question: COc1ccc(C[C@@H](NC(=O)N[C@H]2CCNC[C@@H]2F)c2nc3ccccc3[nH]2)cc1 (relative stereo) [Example 165, 1-((R)-1-(1H-Benzo[d]imidazol-2-yl)-2-(4-methoxyphenyl)ethyl)-3-((3S*,4S*)-3-fluoropiperidin-4-yl)urea] was tested. Which EC50 did it give?
Answer: 27 nM

Question: How did the EC50 turn out when COc1ccc(CC(NC(=O)NC2CC(C)(C)NC(C)(C)C2)c2nc3ccccc3[nH]2)cc1F (centres unmarked) [Example 176, 1-(1-(1H-Benzo[d]imidazol-2-yl)-2-(3-fluoro-4-methoxyphenyl)ethyl)-3-(2,2,6,6-tetramethylpiperidin-4-yl)urea] was run?
Answer: 58 nM

Question: COc1ccc(C[C@@H](NC(=O)N2CCCCC2)c2nc3ccccc3[nH]2)cc1 [Example 86, (R)—N-(1-(1H-Benzo[d]imidazol-2-yl)-2-(4-methoxyphenyl)ethyl)piperidine-1-carboxamide] was tested. Which EC50 did it give?
Answer: 400 nM

Question: Which EC50 does the source give for COc1ccc(C[C@@H](NC(=O)N[C@H](C)c2ccc(C)cc2)c2nc3ccccc3[nH]2)cc1 [Example 301, 1-((R)-1-(1H-Benzo[d]imidazol-2-yl)-2-(4-methoxyphenyl)ethyl)-3-((R)-1-(p-tolyl)ethyl)urea] here?
Answer: 66 nM

Question: COc1ccc(C[C@@H](NC(=O)NC2CCCCC2)c2nc3ccccc3[nH]2)cc1 [Example 17, (R)-1-(1-(1H-Benzo[d]imidazol-2-yl)-2-(4-methoxyphenyl)ethyl)-3-cyclohexylurea hydrochloride] was tested. Which EC50 did it give?
Answer: 47 nM

Question: How did the EC50 turn out when COc1ccc(C[C@@H](NC(=O)NC2CCNC(=O)C2)c2nc3ccccc3[nH]2)cc1 (stereo partly drawn) [Example 174, 1-((R)-1-(1H-Benzo[d]imidazol-2-yl)-2-(4-methoxyphenyl)ethyl)-3-(2-oxopiperidin-4-yl)urea] was run?
Answer: 288 nM

Question: How did the EC50 turn out when COc1ccc(C[C@@H](NC(=O)NC23CCC(O)(CC2)CC3)c2nc3ccc(F)cc3[nH]2)cc1 [Example 196, (R)-1-(1-(6-Fluoro-1H-benzo[d]imidazol-2-yl)-2-(4-methoxyphenyl)ethyl)-3-(4-hydroxybicyclo[2.2.2]octan-1-yl)urea] was run?
Answer: 0.8 nM

Question: For COc1ccc(C[C@@H](NC(=O)NC2CCN(C(C)C)CC2)c2nc3ccccc3[nH]2)cc1 [Example 101, (R)-1-(1-(1H-Benzo[d]imidazol-2-yl)-2-(4-methoxyphenyl)ethyl)-3-(1-isopropylpiperidin-4-yl)urea], which EC50 is on record?
Answer: 113 nM

Question: Which EC50 does the source give for COc1ccc(C[C@@H](NC(=O)N[C@H]2CC[C@@H](O)CC2)c2nc3ccccc3[nH]2)cc1 [Example 183, 1-((R)-1-(1H-Benzo[d]imidazol-2-yl)-2-(4-methoxyphenyl)ethyl)-3-(cis-4-hydroxycyclohexyl)urea] here?
Answer: 58 nM

Question: With COc1ccc(C[C@@H](NC(=O)NCCc2ccc(C)c(C)c2)c2nc3ccccc3[nH]2)cc1 [Example 275, (R)-1-(1-(1H-Benzo[d]imidazol-2-yl)-2-(4-methoxyphenyl)ethyl)-3-(3,4-dimethylphenethyl)urea] as the compound, how does the EC50 read?
Answer: 126 nM

Question: For COc1ccc(CC(NC(=O)Nc2ccnn2-c2ccc(OC)cc2)c2nc3ccccc3[nH]2)cc1 (centres unmarked) [Example 406, 1-(1-(1H-benzo[d]imidazol-2-yl)-2-(4-methoxyphenyl)ethyl)-3-(1-(4-methoxyphenyl)-1H-pyrazol-5-yl)urea], which EC50 is on record?
Answer: 182 nM

Question: O=C(NC(Cc1ccc(C(F)(F)F)cc1F)c1nc2ccccc2[nH]1)N[C@H]1CC[C@H](O)CC1 (single isomer, unassigned; ent-2) [Example 359, 1-(1-(1H-Benzo[d]imidazol-2-yl)-2-(2-fluoro-4-(trifluoromethyl)phenyl)ethyl)-3-(trans-4-hydroxycyclohexyl)urea (ent-2)] was tested. Which EC50 did it give?
Answer: 19 nM

Question: For COc1ccc(CC(NC(=O)N[C@H]2CC[C@H](O)CC2)c2nc3ccccc3[nH]2)c(C)c1 (relative stereo) [Example 396, 1-(1-(1H-Benzo[d]imidazol-2-yl)-2-(4-methoxy-2-methylphenyl)ethyl)-3-(trans-4-hydroxycyclohexyl)urea], which EC50 is on record?
Answer: 26 nM

Question: With CC[C@@H](NC(=O)N[C@H](Cc1ccc(OC)cc1)c1nc2ccccc2[nH]1)c1ccccc1 [Example 344, 1-((R)-1-(1H-Benzo[d]imidazol-2-yl)-2-(4-methoxyphenyl)ethyl)-3-((R)-1-phenylpropyl)urea] as the compound, how does the EC50 read?
Answer: 167 nM

Question: For COc1ccc(C[C@@H](NC(=O)N2CCN(C)CC2)c2nc3ccccc3[nH]2)cc1 [Example 136, (R)—N-(1-(1H-Benzo[d]imidazol-2-yl)-2-(4-methoxyphenyl)ethyl)-4-methylpiperazine-1-carboxamide], which EC50 is on record?
Answer: 387 nM

Question: How did the EC50 turn out when COc1ccc(C[C@@H](NC(=O)N[C@@H](Cc2ccccc2)C(N)=O)c2nc3ccccc3[nH]2)cc1 [Example 208, (S)-2-(3-((R)-1-(1H-Benzo[d]imidazol-2-yl)-2-(4-methoxyphenyl)ethyl)ureido)-3-phenylpropanamide] was run?
Answer: 21 nM

Question: Which EC50 does the source give for COc1ccc(C[C@@H](NC(=O)NC(C)(C)c2ccc(C)cc2)c2nc3ccccc3[nH]2)cc1 [Example 270, (R)-1-(1-(1H-Benzo[d]imidazol-2-yl)-2-(4-methoxyphenyl)ethyl)-3-(2-(p-tolyl)propan-2-yl)urea] here?
Answer: 225 nM

Question: How did the EC50 turn out when COc1ccc(C[C@@H](NC(=O)NCc2c(Cl)cccc2Cl)c2nc3ccccc3[nH]2)cc1 [Example 304, (R)-1-(1-(1H-Benzo[d]imidazol-2-yl)-2-(4-methoxyphenyl)ethyl)-3-(2,6-dichlorobenzyl)urea] was run?
Answer: 141 nM

Question: Which EC50 does the source give for O=C(NC(Cc1ccc(C(F)(F)F)cc1F)c1nc2ccccc2[nH]1)N[C@H]1CC[C@H](O)CC1 (relative stereo) [Example 240, 1-(1-(1H-Benzo[d]imidazol-2-yl)-2-(2-fluoro-4-(trifluoromethyl)phenyl)ethyl)-3-(trans-4-hydroxycyclohexyl)urea] here?
Answer: 12 nM

Question: Which EC50 does the source give for COc1ccc(C[C@@H](NC(=O)N[C@H]2CC[C@H](O)CC2)c2nc3ccccc3[nH]2)cc1 [Example 4, 1-((R)-1-(1H-Benzo[d]imidazol-2-yl)-2-(4-methoxyphenyl)ethyl)-3-(trans-4-hydroxycyclohexyl)urea] here?
Answer: 7.8 nM

Question: Which EC50 does the source give for COc1cc(F)c(CC(NC(=O)NC23CCC(O)(CC2)CC3)c2nc3ccccc3[nH]2)c(F)c1 (single isomer, unassigned; ent-1) [Example 259, 1-(1-(1H-Benzo[d]imidazol-2-yl)-2-(2,6-difluoro-4-methoxyphenyl)ethyl)-3-(4-hydroxybicyclo[2.2.2]octan-1-yl)urea (ent-1)] here?
Answer: 0.5 nM

Question: For COc1ccc(C[C@@H](NC(=O)N[C@H]2CC[C@H](O)CC2)c2nc3c(F)cccc3[nH]2)cc1 [Example 124, 1-((R)-1-(4-Fluoro-1H-benzo[d]imidazol-2-yl)-2-(4-methoxyphenyl)ethyl)-3-(trans-4-hydroxycyclohexyl)urea], which EC50 is on record?
Answer: 174 nM

Question: With COc1ccc(C[C@@H](NC(=O)N[C@H](CC(=O)OC(C)(C)C)c2ccccc2)c2nc3ccccc3[nH]2)cc1 [Example 378, (R)-tert-Butyl 3-(3-((R)-1-(1H-benzo[d]imidazol-2-yl)-2-(4-methoxyphenyl)ethyl)ureido)-3-phenylpropanoate] as the compound, how does the EC50 read?
Answer: 1470 nM
